Patent US9050310B2, “Treatment of ocular lesions” (priority 2004, dated 2015)

Tests used:
IL-8 = assay: UVB-mediated induction of IL-8 in pterygium epithelial cells, sandwich immunoassay of supernatants; format: cell-based, human; settings: for IL-8 levels / IL-8 production post-radiation (effect in words): 20 mJ/cm^2 UVB; for IL-8 levels: supernatant after 48 hrs, UVB alone 166.6±22.5 pg/ml; for IL-8 production post-radiation (effect in words): 10 μM PD98059, 1 μM SB202190, 1 μM SB203580, 1 μM hydrocortisone
Procedure: (§1) Pterygium-derived epithelial cells (PEC) were seeded at 1×10^6 cells in 100 mm tissue culture dishes (Corning, N.Y.) or at a density of 1.5×10^5 cells per well in 6-well plates (Nunc, Denmark) and grown in the presence of 10% FBS/EMEM. Once cells reached semi-confluence, the medium was aspirated, cells washed three times with sterile PBS, and left in serum-free medium for 16 hrs as previously described (Di Girolamo N., et al. Prog Retin Eye Res. 2004; 23:195-228), (Di Girolamo N., et al., Invest Opthalmol Vis Sci. 2000; 41:671-679), (Di Girolamo N., et al., Invest Opthalmol Vis Sci. 2002; 43:3430-3437), (Nolan T, et al., Am J Pathol. 2003; 162:567-574), (Di Girolamo., et al., Invest Ophthalmol Vis Sci. 2003; 44:4705-4714). In some experiments, cells were pre-incubated with selective inhibitors of ERK1/2, JNK, and p38 MAPKs (Calbiochem, Calif.). These included 10 μM PD98059, 1 μM SB202190, and 1 μM SB203580, respectively. In addition, 1 μM hydrocortisone (Sigma, St Louis, […].) was added to some cells as a broad-spectrum negative regulator of cytokine production.
(§2) To determine whether surface receptors were involved in transmitting the UVB signal, some cells were pre-incubated for 1 hr with 0.1 μM PD153035 (Calbiochem), an inhibitor of the tyrosine kinase activity of the EGFR or with 0.1 μM AG1295 (Calbiochem) an inhibitor of the tyrosine kinase activity of the PDGFR. While in other experiments, cells were pre-treated with RA (0-0.1 μM; Sigma) or IFN-α (0-15,000 U; PBL Biomedical Laboratories, Piscataway, N.J.). This medium was replaced with PBS and monolayers irradiated with 20 mJ/cm^2 of UVB using FL20SE bulbs (Philips, Sydney, Australia) as previously reported (Di Girolamo N., et al. Prog Retin Eye Res. 2004; 23:195-228), (Di Girolamo N., et al., Invest Opthalmol Vis Sci. 2002; 43:3430-3437), (Nolan T, et al., Am J Pathol. 2003; 162:567-574), (Di Girolamo., et al., Invest Ophthalmol Vis Sci. 2003; 44:4705-4714). UVB light intensity was monitored and calibrated prior to each experiment with the aid of a radiometer IL1400A (International Light, Newburyport, Mass.). After each exposure, PEC were rinsed once with PBS and placed in fresh serum-free medium with the respective compounds, then incubated for a further 48 hrs. Supernatants were collected, cleared of any cell debris by centrifugation, and stored frozen in small aliquots at −70° C. The compounds used in these experiments were non-toxic at all doses tested.
(§3) Human IL-6, IL-8, and VEGF (Quantikine™; R&D Systems, Minneapoli, Minn.) were quantified using sandwich immunoassays. Cytokines in supernatants from control (mock irradiated), or UVB-exposed PEC were captured on antibody-coated 96-well plates, and detection performed precisely as directed by the manufacturer. The optical density of the reaction product was read at the appropriate wavelength using a microplate reader (Spectramax™ Plus, Molecular Devices, Sunnyvale, Calif.).
(§4) Cytokine levels in the culture supernatants were expressed as mean±standard deviation. Difference in cytokine level between control and UV treated cells was assessed by one-way analysis of variance, followed by the Newman-Keuls test for multiple comparisons of treatment groups with the control group. A commercial software package (Prism; GraphPad Software, San Diego, Calif.) was used for analysis.

VEGF = assay: UVB-mediated induction of VEGF in pterygium epithelial cells, sandwich immunoassay of supernatants; format: cell-based, human; settings: for VEGF production: PEC pre-incubated 1 hr with 0.1 μM inhibitor, supernatant after 48 hrs, UVB alone 166.5±11.0 pg/ml; for VEGF production / VEGF production post-radiation (effect in words): 20 mJ/cm^2 UVB; for VEGF production post-radiation (effect in words): 10 μM PD98059, 1 μM SB202190, 1 μM SB203580, 1 μM hydrocortisone
Procedure: as §1, §2, §3, §4

IL-6 = assay: UVB-mediated induction of IL-6 in pterygium epithelial cells, sandwich immunoassay of supernatants; format: cell-based, human; settings: for IL-6 production post-radiation (effect in words): 10 μM PD98059, 1 μM SB202190, 1 μM SB203580, 1 μM hydrocortisone
Procedure: as §1, §2, §3, §4

[1] = topical ocular use; cited from earlier work
pterygium = settings: retrospective study of 164 patients, pterygium surgery with associated treatment; cited from earlier work
[2] = PEC, single dose of UVB, several concentrations: RA 0-0.1 μM, IFN-α 0-15,000 U

Compound	IL-8 production post-radiation (effect in words) (IL-8; PEC)	VEGF production post-radiation (effect in words) (VEGF; PEC)	IL-6 production post-radiation (effect in words) (IL-6; PEC, 20 mJ/cm^2 UVB)	further results
Cc1cc2ncc(-c3ccccc3)nc2cc1C [AG1295]				IL-8 levels (IL-8; PEC pre-incubated 1 hr with 0.1 μM PD153035 (EGFR inhibitor) or 0.1 μM AG1295 (PDGFR inhibitor)): 174 ± 60.3 pg/mL; VEGF production (VEGF): 132.7 ± 8.0 pg/mL; IL-6 levels (IL-6; PEC pre-incubated 1 hr with 0.1 μM inhibitor, 20 mJ/cm^2 UVB, supernatant after 48 hrs, UVB alone 356.2±32.1): 217 ± 42 pg/mL
C[C@]12CCC(=O)C=C1CC[C@@H]1[C@@H]2[C@@H](O)C[C@@]2(C)[C@H]1CC[C@]2(O)C(=O)CO [Hydrocortisone, hydrocortisone]	near control levels	near control levels	near control levels	
COc1cccc(-c2cc(=O)c3ccccc3o2)c1N [PD98059]	significantly abrogated	only partially, but significantly reduced	significantly abrogated	
COc1cc2ncnc(Nc3cccc(Br)c3)c2cc1OC [PD153035]				IL-8 levels (IL-8; PEC pre-incubated 1 hr with 0.1 μM inhibitor): 74.4 ± 23.6 pg/mL; VEGF production (VEGF): 109.1 ± 1.5 pg/mL
Oc1ccc(-c2nc(-c3ccncc3)c(-c3ccc(F)cc3)[nH]2)cc1 [SB202190]	significantly abrogated	only partially, but significantly reduced	significantly abrogated	
C[S+]([O-])c1ccc(-c2nc(-c3ccncc3)c(-c3ccc(F)cc3)[nH]2)cc1 (stereo not shown) [SB203580]	significantly abrogated	only partially, but significantly reduced	significantly abrogated	
CO[C@@]12[C@H](COC(N)=O)C3=C(C(=O)C(C)=C(N)C3=O)N1C[C@@H]1N[C@@H]12 [mitomyacin C]				complications [1]: corneoscleral melting, cataract and secondary glaucoma; pterygium regrowth (pterygium): 8.74%
IFN-α				IL-8 protein production (effect in words) (IL-8; [2]): dose-dependently inhibited; UVB-mediated induction of VEGF (effect in words) (VEGF; [2]): no significant inhibitory effect; IL-6 protein production (effect in words) (IL-6; [2]): dose-dependently inhibited
